Results reported in the NIST ThermoML archive (doi:10.1021/je800635g).
± gives the expanded uncertainty stated by the source.

Assay: xn = mol fraction of the nth substance listed
Conditions: Liquid, Falling or rolling sphere viscometry

Cc1ccc(C)cc1 [1,4-dimethylbenzene] + CC(=O)O
viscosity [mPa·s]
Conditions | x1 = 0.1001 | x1 = 0.1997 | x1 = 0.3001 | x1 = 0.3997 | x1 = 0.5 | x1 = 0.6002 | x1 = 0.6988 | x1 = 0.7994 | x1 = 0.8994
373.15 K, 3200 kPa | – | – | – | – | 0.315 ± 0.003 | 0.309 ± 0.003 | 0.307 ± 0.003 | 0.305 ± 0.003 | 0.308 ± 0.003
393.15 K, 800 kPa | 0.34 ± 0.004 | 0.294 ± 0.003 | 0.269 ± 0.003 | 0.252 ± 0.003 | 0.253 ± 0.003 | 0.249 ± 0.003 | 0.256 ± 0.003 | 0.254 ± 0.003 | 0.254 ± 0.003
393.15 K, 1600 kPa | 0.345 ± 0.004 | 0.3 ± 0.003 | 0.275 ± 0.003 | 0.258 ± 0.003 | 0.258 ± 0.003 | 0.254 ± 0.003 | 0.261 ± 0.003 | 0.258 ± 0.003 | 0.259 ± 0.003
393.15 K, 2400 kPa | 0.352 ± 0.004 | 0.306 ± 0.003 | 0.281 ± 0.003 | 0.263 ± 0.003 | 0.264 ± 0.003 | 0.26 ± 0.003 | 0.266 ± 0.003 | 0.264 ± 0.003 | 0.265 ± 0.003
393.15 K, 3200 kPa | 0.358 ± 0.004 | 0.313 ± 0.003 | 0.287 ± 0.003 | 0.269 ± 0.003 | 0.27 ± 0.003 | 0.265 ± 0.003 | 0.272 ± 0.003 | 0.27 ± 0.003 | 0.27 ± 0.003
413.15 K, 800 kPa | 0.294 ± 0.003 | 0.255 ± 0.003 | 0.237 ± 0.003 | 0.221 ± 0.002 | 0.217 ± 0.002 | 0.218 ± 0.002 | 0.222 ± 0.002 | 0.219 ± 0.002 | 0.22 ± 0.002
413.15 K, 1600 kPa | 0.3 ± 0.003 | 0.26 ± 0.003 | 0.243 ± 0.003 | 0.227 ± 0.002 | 0.217 ± 0.002 | 0.223 ± 0.002 | 0.227 ± 0.002 | 0.225 ± 0.002 | 0.225 ± 0.002
413.15 K, 2400 kPa | 0.307 ± 0.003 | 0.265 ± 0.003 | 0.249 ± 0.003 | 0.233 ± 0.003 | 0.228 ± 0.002 | 0.229 ± 0.002 | 0.232 ± 0.003 | 0.23 ± 0.002 | 0.231 ± 0.002
413.15 K, 3200 kPa | 0.313 ± 0.003 | 0.271 ± 0.003 | 0.255 ± 0.003 | 0.239 ± 0.003 | 0.233 ± 0.003 | 0.234 ± 0.003 | 0.237 ± 0.003 | 0.235 ± 0.003 | 0.236 ± 0.003
433.15 K, 800 kPa | – | 0.223 ± 0.002 | 0.208 ± 0.002 | 0.196 ± 0.002 | 0.195 ± 0.002 | 0.194 ± 0.002 | 0.194 ± 0.002 | 0.191 ± 0.002 | 0.194 ± 0.002
433.15 K, 1600 kPa | 0.26 ± 0.003 | 0.228 ± 0.002 | 0.213 ± 0.002 | 0.202 ± 0.002 | 0.201 ± 0.002 | 0.199 ± 0.002 | 0.199 ± 0.002 | 0.197 ± 0.002 | 0.199 ± 0.002
433.15 K, 2400 kPa | 0.267 ± 0.003 | 0.233 ± 0.003 | 0.219 ± 0.002 | 0.208 ± 0.002 | 0.206 ± 0.002 | 0.205 ± 0.002 | 0.204 ± 0.002 | 0.202 ± 0.002 | 0.204 ± 0.002
433.15 K, 3200 kPa | 0.273 ± 0.003 | 0.239 ± 0.003 | 0.226 ± 0.002 | 0.213 ± 0.002 | 0.212 ± 0.002 | 0.21 ± 0.002 | 0.209 ± 0.002 | 0.208 ± 0.002 | 0.209 ± 0.002
453.15 K, 800 kPa | 0.221 ± 0.002 | 0.196 ± 0.002 | 0.181 ± 0.002 | 0.177 ± 0.002 | 0.174 ± 0.002 | 0.173 ± 0.002 | 0.173 ± 0.002 | 0.17 ± 0.002 | 0.17 ± 0.002
453.15 K, 1600 kPa | 0.227 ± 0.002 | 0.201 ± 0.002 | 0.186 ± 0.002 | 0.183 ± 0.002 | 0.18 ± 0.002 | 0.179 ± 0.002 | 0.178 ± 0.002 | 0.176 ± 0.002 | 0.175 ± 0.002
453.15 K, 2400 kPa | 0.233 ± 0.003 | 0.206 ± 0.002 | 0.192 ± 0.002 | 0.188 ± 0.002 | 0.185 ± 0.002 | 0.184 ± 0.002 | 0.183 ± 0.002 | 0.181 ± 0.002 | 0.18 ± 0.002
453.15 K, 3200 kPa | 0.24 ± 0.003 | 0.211 ± 0.002 | 0.198 ± 0.002 | 0.194 ± 0.002 | 0.191 ± 0.002 | 0.189 ± 0.002 | 0.188 ± 0.002 | 0.187 ± 0.002 | 0.184 ± 0.002
473.15 K, 1600 kPa | 0.19 ± 0.002 | 0.17 ± 0.002 | 0.162 ± 0.002 | 0.162 ± 0.002 | 0.161 ± 0.002 | 0.16 ± 0.002 | 0.16 ± 0.002 | 0.157 ± 0.002 | 0.159 ± 0.002
473.15 K, 2400 kPa | 0.196 ± 0.002 | 0.175 ± 0.002 | 0.168 ± 0.002 | 0.167 ± 0.002 | 0.166 ± 0.002 | 0.165 ± 0.002 | 0.164 ± 0.002 | 0.162 ± 0.002 | 0.164 ± 0.002
473.15 K, 3200 kPa | 0.202 ± 0.002 | 0.181 ± 0.002 | 0.173 ± 0.002 | 0.173 ± 0.002 | 0.171 ± 0.002 | 0.17 ± 0.002 | 0.169 ± 0.002 | 0.168 ± 0.002 | 0.168 ± 0.002
